The source of these data is ChEMBL document CHEMBL1158437, “The discovery of the potent aurora inhibitor MK-0457 (VX-680)” (Bioorg Med Chem Lett, 2009).

The target of data set [1] is T1, Aurora kinase A (Homo sapiens, UniProt O14965).
T1 sequence (O14965 whole entry): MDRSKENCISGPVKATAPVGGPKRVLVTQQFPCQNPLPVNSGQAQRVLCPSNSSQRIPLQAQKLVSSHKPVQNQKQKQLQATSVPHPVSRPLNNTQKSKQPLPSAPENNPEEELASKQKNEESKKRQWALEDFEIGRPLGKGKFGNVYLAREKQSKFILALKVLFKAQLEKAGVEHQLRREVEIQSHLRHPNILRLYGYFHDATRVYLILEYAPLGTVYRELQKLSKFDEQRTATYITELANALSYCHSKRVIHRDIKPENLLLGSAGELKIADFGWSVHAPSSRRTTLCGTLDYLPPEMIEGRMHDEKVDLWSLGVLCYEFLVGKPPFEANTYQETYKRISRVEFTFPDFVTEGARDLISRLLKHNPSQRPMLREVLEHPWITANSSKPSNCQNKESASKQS
Description: Inhibition of Aurora-A by coupled assay

In data set [2] the target is T2, Aurora kinase B (Homo sapiens, UniProt Q96GD4). As to the kind of experiment: Inhibition of Aurora-B.
Data set [3] concerns COLO 205. Description: Antiproliferative activity against human COLO205 cells by [3H]thymidine uptake assay. The data set is classed as functional, cell-based. Conditions: for Activity: TDE = time-dependent effect.
Data set [4] deals with Glycogen synthase kinase-3 beta (Homo sapiens, UniProt P49841).
The target in data set [5] is Proto-oncogene tyrosine-protein kinase Src (Homo sapiens, UniProt P12931). Description: Inhibition of Src.
Data set [6] relates to COLO 205. Description: Induction of apoptosis in human COLO205 cells by annexin V binding. The data set is classed as functional, cell-based.
The test system of data set [7] is COLO 205. Description: Induction of apoptosis in human COLO205 cells assessed as DNA fragmentation by ELISA. The data set is classed as functional, cell-based.
The test system of data set [8] is COLO 205. Description: Induction of apoptosis in human COLO205 cells by TUNEL staining. The data set is classed as functional, cell-based.
Data set [9] deals with MCF7. Description: Antitumor activity against human MCF7 cells xenograft model assessed as tumor growth inhibition at 300 mg/kg, po bid. The data set is classed as functional. Conditions: read-out: GI.
Data set [10] concerns COLO 205. Description: Cytotoxicity against human COLO205 cells after 48 hrs by MTS assay. Conditions: COLO 205, 48 h. The data set is classed as functional, cell-based.
A short description of data set [11]: Aqueous solubility at pH 7.4. The data set is classed as physicochemical. Particulars: buffer.
In data set [12] the target is T2, Aurora kinase B. Description: Inhibition of Aurora-B by time dependent kinetic study.
Data set [13] in a line: Half life in rat. Conditions: in vivo. The data set is classed as ADME, organism-based.
Data set [14] in a line: Bioavailability in rat. The data set is classed as ADME, organism-based. Particulars: in vivo.
For data set [15], the target named is T3, Aurora kinase C (Homo sapiens, UniProt Q9UQB9).
T3 sequence (Q9UQB9 whole entry): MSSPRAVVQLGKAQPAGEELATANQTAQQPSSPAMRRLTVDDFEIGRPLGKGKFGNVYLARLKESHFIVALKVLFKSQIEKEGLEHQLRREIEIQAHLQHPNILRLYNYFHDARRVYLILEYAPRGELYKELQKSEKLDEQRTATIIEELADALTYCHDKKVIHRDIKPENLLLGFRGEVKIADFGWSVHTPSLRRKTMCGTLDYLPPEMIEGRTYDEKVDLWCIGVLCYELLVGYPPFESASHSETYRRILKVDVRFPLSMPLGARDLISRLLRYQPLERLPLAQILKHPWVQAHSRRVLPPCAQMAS
Description: Inhibition of Aurora-C.

SMILES strings stand for the structures. ≈ marks a conversion by molar mass, not a printed value. Calls of active or inactive are those of the source. The rule behind the calls is not given here.

Glycogen synthase kinase-3 beta, sequence (P49841 whole entry): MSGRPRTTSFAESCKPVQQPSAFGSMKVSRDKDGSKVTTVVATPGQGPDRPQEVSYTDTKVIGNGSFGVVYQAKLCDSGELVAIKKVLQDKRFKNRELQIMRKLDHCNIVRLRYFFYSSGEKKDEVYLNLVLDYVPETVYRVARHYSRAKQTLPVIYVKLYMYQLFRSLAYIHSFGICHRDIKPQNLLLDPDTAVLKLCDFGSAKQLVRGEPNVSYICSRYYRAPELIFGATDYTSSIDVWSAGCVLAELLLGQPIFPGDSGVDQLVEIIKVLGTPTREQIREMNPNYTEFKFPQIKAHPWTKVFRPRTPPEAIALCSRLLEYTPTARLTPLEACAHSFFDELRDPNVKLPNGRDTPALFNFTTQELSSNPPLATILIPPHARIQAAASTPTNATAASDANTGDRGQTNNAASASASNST
Proto-oncogene tyrosine-protein kinase Src, sequence (P12931 2-536 limits assumed): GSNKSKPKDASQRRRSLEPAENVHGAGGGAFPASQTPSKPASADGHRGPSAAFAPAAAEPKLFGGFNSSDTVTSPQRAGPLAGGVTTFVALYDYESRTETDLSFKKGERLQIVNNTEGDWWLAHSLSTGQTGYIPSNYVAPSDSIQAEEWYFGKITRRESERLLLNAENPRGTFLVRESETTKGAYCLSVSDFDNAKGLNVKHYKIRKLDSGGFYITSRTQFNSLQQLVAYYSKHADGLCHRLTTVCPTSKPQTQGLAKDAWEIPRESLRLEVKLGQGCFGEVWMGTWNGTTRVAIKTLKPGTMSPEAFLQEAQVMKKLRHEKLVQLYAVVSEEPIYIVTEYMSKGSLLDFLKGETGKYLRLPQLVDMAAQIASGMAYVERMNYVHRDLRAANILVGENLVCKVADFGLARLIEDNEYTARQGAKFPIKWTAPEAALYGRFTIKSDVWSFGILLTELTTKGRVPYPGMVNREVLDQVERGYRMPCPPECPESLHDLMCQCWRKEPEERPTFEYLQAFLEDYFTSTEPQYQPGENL
T2 sequence (Q96GD4 whole entry): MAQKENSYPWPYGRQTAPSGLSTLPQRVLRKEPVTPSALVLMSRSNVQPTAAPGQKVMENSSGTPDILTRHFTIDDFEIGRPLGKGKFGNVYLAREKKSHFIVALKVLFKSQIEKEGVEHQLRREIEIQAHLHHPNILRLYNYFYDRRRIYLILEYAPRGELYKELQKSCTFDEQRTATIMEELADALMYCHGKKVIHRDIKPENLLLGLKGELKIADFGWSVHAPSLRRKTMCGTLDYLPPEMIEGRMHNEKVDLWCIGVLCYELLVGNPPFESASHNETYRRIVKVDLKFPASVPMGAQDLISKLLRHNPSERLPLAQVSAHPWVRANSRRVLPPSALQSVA

In the case of `CCC(=O)Nc1ccc(Sc2nc(Nc3cc(C)n[nH]3)cc(N3CCCCC3)n2)cc1`, the Ki in data set [1] came to 1.6 nM; in [2], 8 nM.
As to `Cc1cc(Nc2nc(Sc3ccc(Cl)cc3)nc3ccccc23)n[nH]1`, the Ki in data set [2] was over 1100 nM.
The same measure, in the same setting: the same measure for `COc1ccc(Sc2nc(Nc3cc(C)[nH]n3)c3ccccc3n2)cc1OC`: 120 nM.
In data set [3], `CCC(=O)Nc1ccc(Sc2nc(Nc3cc(C)[nH]n3)cc(-c3ccccc3)n2)cc1` returned an IC50 of 870 nM. The Ki is under 1 nM in data set [1] and 145 nM in data set [2].
In the case of `Cc1cc(Nc2nc(-c3ccncc3)nc3ccccc23)n[nH]1`, the Ki was found to be 73 nM in data set [4], 81 nM in [1] and 181 nM in data set [5].
Compound `CC(=O)Nc1ccc(Sc2nc(Nc3cc(C4CC4)[nH]n3)c3ccccc3n2)cc1` yielded an IC50 in data set [3] of 210 nM. Further, in data set [2], the Ki came to 15 nM.
As for `CCC(=O)Nc1ccc(Sc2nc(Nc3cc(C)[nH]n3)cc(N3CCNCC3)n2)cc1`, the Activity result in data set [3] is “tde”.
`CC(=O)Nc1ccc(Sc2nc(Nc3cc(C)n[nH]3)c3ccccc3n2)cc1`: the outcome in data set [6], in data set [7] and in [8] was Active. Moreover, the inhibition in vivo at 300 mg/kg in [9] is 50%. In data set [10], this compound came in with an IC50 of 8500 nM.
As for `CCC(=O)Nc1ccc(Sc2nc(Nc3cc(C)[nH]n3)cc(N3CCN(C(C)(C)C)CC3)n2)cc1`, the Activity entry in data set [3] is “tde”.
On to `CCC(=O)Nc1ccc(Sc2nc(Nc3cc(C)[nH]n3)cc(-c3cccnc3)n2)cc1`, for which the IC50 in [3] came out at 470 nM. For the same compound, the solubility in data set [11] was under 1 µg/mL. For the same compound, the Ki in [1] was 3.9 nM; in [2] it was 52 nM.
As for `CCC(=O)Nc1ccc(Sc2nc(Nc3cc(C)[nH]n3)cc(N3CCC3)n2)cc1`, it took 730 nM to reach half-maximal inhibition in data set [3] (IC50). The results for the Ki in data set [1] and in [2] were 2.4 nM and 23 nM, respectively.
Consider `Cc1cc(Nc2nc(Sc3cccc(Cl)c3)nc3ccccc23)n[nH]1`, for which the Ki in data set [2] was 185 nM.
Consider `CCC(=O)Nc1ccc(Sc2nc(Nc3cc(C)n[nH]3)cc(C3CC3)n2)cc1`, for which, in data set [3], the IC50 was 1420 nM. Further, the Ki was determined as 3.9 nM in [1] and 59 nM in [2].
In data set [11], `Cc1cc(Nc2cc(N3CCN(C)CC3)nc(Sc3ccc(NC(=O)C4CC4)cc3)n2)[nH]n1` [TOZASERTIB] yielded a solubility of 6.8 µg/mL (≈ 14.6 µM).
Turning to `Cc1cc(Nc2nc(Sc3ccc4ccccc4c3)nc3ccccc23)n[nH]1`, in [3], the half-maximal inhibitory concentration (IC50) is over 12000 nM. For the same compound, the Ki was over 150 nM in data set [4], over 40 nM in [2] and over 500 nM in [5].
Compound `CCC(=O)Nc1ccc(Sc2nc(Nc3cc(C)[nH]n3)cc(C(C)(C)C)n2)cc1` registered a half-maximal inhibitory concentration (IC50) in data set [3] of 2000 nM. In data set [11], this compound returned a solubility of 11.2 µg/mL (≈ 27.3 µM). Also, the Ki in data set [1] came out at 10 nM; in [2], 115 nM.
Take `Cc1cc(Nc2cc(N3CCN(C)CC3)nc(Sc3ccc(NC(=O)C4CC4)cc3)n2)n[nH]1` [TOZASERTIB]: in data set [3], the half-maximal inhibitory concentration (IC50) worked out at 19 nM and the Activity result is “tde”.
With `Cc1cc(Nc2nc(Sc3ccccc3Cl)nc3ccccc23)n[nH]1`, in data set [2], the Ki stood at 445 nM.
In turn, `CCC(=O)Nc1ccc(Sc2nc(Nc3cc(C)[nH]n3)c3ccccc3n2)cc1` returned a concentration for half-maximal inhibition (IC50) in data set [3] of 830 nM. Moreover, the Ki in [2] turned out to be 57 nM.
Take `CC(=O)Nc1ccc(Sc2nc(Nc3cc(C)[nH]n3)cc(-c3ccccc3)n2)cc1`: the figures for the Ki in data set [1] and in data set [2] were 2.4 nM and 83 nM, respectively.
Regarding `Cc1cc(Nc2nc(Sc3ccc(NC(=O)OC(C)(C)C)cc3)nc3ccccc23)n[nH]1`, the half-maximal inhibitory concentration (IC50) in [3] stood at 2870 nM. Besides, the Ki in [4] was over 4000 nM; in data set [2], 250 nM; in data set [5], over 3000 nM.
With `CCC(=O)Nc1ccc(Sc2nc(Nc3cc(C)[nH]n3)cc(N3CCN(C4CC4)CC3)n2)cc1`, in data set [3], the Activity entry was “tde”.
The compound `Cc1cc(Nc2nc(Sc3cccc(Cl)c3Cl)nc3ccccc23)n[nH]1` showed a Ki in data set [2] of 675 nM.
For the compound `CCC(=O)Nc1ccc(Sc2nc(Nc3cc(C)[nH]n3)cc(N3CCN(CC)CC3)n2)cc1`, the Activity entry in data set [3] is “tde”.
In data set [2], `Cc1cc(Nc2nc(Sc3ccc(Cl)cc3Cl)nc3ccccc23)n[nH]1` returned a Ki of over 1100 nM.
As for `CC(=O)Nc1ccc(Sc2nc(Nc3cc[nH]n3)c3ccccc3n2)cc1`, the concentration for half-maximal inhibition (IC50) in [3] stood at 2200 nM. Further, the Ki in data set [2] was over 1100 nM.
`Cc1cc(Nc2nc(Sc3c(Cl)cccc3Cl)nc3ccccc23)n[nH]1` returned a Ki in [2] of over 1100 nM.
`CC(=O)Nc1ccc(Sc2nc(C)cc(Nc3cc(C)n[nH]3)n2)cc1` showed a 50% inhibitory concentration (IC50) in data set [3] of 2000 nM. The solubility in [11] was under 1 µg/mL. Also, the Ki stood at 18 nM in data set [1] and 220 nM in [2].
In data set [11], `CCC(=O)Nc1ccc(Sc2nc(Nc3cc(C)n[nH]3)cc(N3CCNCC3)n2)cc1` showed a solubility of 296 µg/mL (≈ 675 µM). The Ki in data set [1] stood at 3.7 nM; in [2] it was 18 nM.
On the same counts, the results for `CCC(=O)Nc1ccc(Sc2nc(Nc3cc(C)n[nH]3)cc(N3CCOCC3)n2)cc1` are 5.4 µg/mL (≈ 12.3 µM), 1.7 nM and 14 nM.
Turning to `COc1ccc(Sc2nc(Nc3cc(C)[nH]n3)c3ccccc3n2)cc1`, the Ki in data set [2] worked out at 575 nM.
For the compound `COc1ccccc1Sc1nc(Nc2cc(C)[nH]n2)c2ccccc2n1`, the Ki was 995 nM in data set [2] and over 1000 nM in [5].
In [3], `CCC(=O)Nc1ccc(Sc2nc(C)cc(Nc3cc(C)n[nH]3)n2)cc1` yielded a 50% inhibitory concentration (IC50) of 720 nM. Moreover, the solubility in data set [11] was 4.2 µg/mL (≈ 11.4 µM). Besides, the Ki in data set [1] is 5.1 nM; in data set [2], 153 nM.
`CCC(=O)Nc1ccc(Sc2nc(Nc3cc(C)[nH]n3)cc(N3CCN(C)CC3)n2)cc1`: the Activity result in data set [3] is “tde”. The solubility in [11] turned out to be 63.4 µg/mL (≈ 140 µM). The Ki was 1.6 nM in [1] and 20 nM in [2].
For the compound `Cc1cc(Nc2nc(Sc3ccccc3)nc3ccccc23)n[nH]1`, the Ki in data set [2] stood at 590 nM.
Regarding `CCC(=O)Nc1ccc(Sc2nc(Nc3cc(C)n[nH]3)cc(N3CCN(CC)CC3)n2)cc1`, the concentration in solution in data set [11] (solubility) came to 114 µg/mL (≈ 245 µM). In addition, the Ki in [1] was under 1 nM; in [2], 25 nM.
Consider `Cc1cc(Nc2nc(Sc3ccc(Cl)c(Cl)c3)nc3ccccc23)n[nH]1`, for which the Ki is over 40 nM in data set [2] and over 38 nM in data set [5].
Regarding `Cc1cc(Nc2nc(Sc3ccc(NS(C)(=O)=O)cc3)nc3ccccc23)n[nH]1`, the IC50 in data set [3] is 780 nM. The same compound yielded a Ki in data set [2] of 230 nM.
In the case of `CC(=O)N(C)c1ccc(Sc2nc(Nc3cc(C)[nH]n3)c3ccccc3n2)cc1`, it took 5770 nM to reach half-maximal inhibition in data set [3] (IC50). In addition, the Ki in data set [1] was under 1 nM; in data set [2] it was 105 nM; in [5], 796 nM.
`CCC(=O)Nc1ccc(Sc2nc(Nc3cc(C)[nH]n3)cc(-c3ccncc3)n2)cc1` had an IC50 in data set [3] of 1000 nM. The Ki in data set [1] was under 3 nM; in data set [2], 49 nM.
`Cc1cc(Nc2nc(Sc3ccc(NC(=O)C4CC4)cc3)nc3ccccc23)n[nH]1`: the IC50 in data set [3] was 910 nM. Further, the Ki in data set [2] was found to be 51 nM.
Take `CCC(=O)Nc1ccc(Sc2nc(Nc3cc(C)n[nH]3)cc(N3CCN(C(C)(C)C)CC3)n2)cc1`: in data set [11], the solubility was determined as 221 µg/mL (≈ 446 µM). Also, the results for the Ki in [1], in [12] and in [2] were 1.3 nM, 0.8 nM and 11 nM, respectively. In [13], this compound had a half-life of 8 h.
Compound `CC(=O)Nc1ccc(Sc2nc(Nc3cc(C)[nH]n3)c3ccccc3n2)cc1` came in with a bioavailability in data set [14] of 40%. Further, in [15], the Ki is 11 nM. Also, in [13], the half-life was 1.5 h.
In turn, `CCC(=O)Nc1ccc(Sc2nc(Nc3cc(C)n[nH]3)cc(N3CCN(C4CC4)CC3)n2)cc1` gave a solubility in [11] of 12.8 µg/mL (≈ 26.7 µM). Further, the Ki was under 1 nM in data set [1] and 9.5 nM in [2].
Consider `CC(=O)Nc1ccc(Sc2nccc(Nc3cc(C)[nH]n3)n2)cc1`, for which, in data set [3], the IC50 amounted to 4050 nM. This compound returned a solubility in data set [11] of 13.8 µg/mL (≈ 40.5 µM). The results for the Ki in data set [1] and in data set [2] were 86 nM and 207 nM, respectively.
